Assay results as given in ChEMBL document CHEMBL1151759 (J Med Chem, 2008).
Blank lines part the entries; values can stand above or below the compound they belong to.

Columns and labels:
[1] = biological target: T1, Neuropeptide Y receptor type 1 (Homo sapiens, UniProt P25929); assay: Displacement of [3H]propionyl-pNPY from neuropeptide Y1 receptor in human SK-N-MC cells; assay type: cell-based
T1 sequence (P25929 whole entry): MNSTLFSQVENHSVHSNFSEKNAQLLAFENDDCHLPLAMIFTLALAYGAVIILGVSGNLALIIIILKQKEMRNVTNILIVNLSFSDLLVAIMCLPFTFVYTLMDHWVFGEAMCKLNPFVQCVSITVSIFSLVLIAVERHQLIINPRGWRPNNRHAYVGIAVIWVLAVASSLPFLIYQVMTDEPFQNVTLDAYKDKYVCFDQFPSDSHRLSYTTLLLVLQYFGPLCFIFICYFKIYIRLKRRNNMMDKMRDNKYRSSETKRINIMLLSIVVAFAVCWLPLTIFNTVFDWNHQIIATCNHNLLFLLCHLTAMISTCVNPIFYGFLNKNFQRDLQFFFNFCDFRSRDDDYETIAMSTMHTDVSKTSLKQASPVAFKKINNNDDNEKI

[2] = biological target: T1, Neuropeptide Y receptor type 1; assay: Displacement of [3H]UR-MK114 from neuropeptide Y1 receptor in human SK-N-MC cells; assay type: cell-based
[3] = biological target: T2, Neuropeptide Y receptor type 2 (Homo sapiens, UniProt P49146); assay: Displacement of Dy-635-pNPY from human neuropeptide Y2 receptor expressed in CHO cells coexpressing Galphaqi5 and aequorin by flow cytometric assay; assay type: cell-based
T2 sequence (P49146 whole entry): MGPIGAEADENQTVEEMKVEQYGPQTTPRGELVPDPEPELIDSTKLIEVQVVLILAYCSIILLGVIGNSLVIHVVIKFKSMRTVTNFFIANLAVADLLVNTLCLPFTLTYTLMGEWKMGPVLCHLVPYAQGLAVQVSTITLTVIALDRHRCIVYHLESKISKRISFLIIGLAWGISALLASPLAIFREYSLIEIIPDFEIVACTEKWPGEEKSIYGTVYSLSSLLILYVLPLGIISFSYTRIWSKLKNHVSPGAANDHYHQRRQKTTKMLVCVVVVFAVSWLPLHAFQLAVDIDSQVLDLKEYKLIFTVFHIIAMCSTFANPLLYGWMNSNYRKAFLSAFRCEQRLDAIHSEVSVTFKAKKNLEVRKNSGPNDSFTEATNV

[4] = biological target: T3, Neuropeptide Y receptor type 5 (Homo sapiens, UniProt Q15761); assay: Displacement of Dy-635-pNPY from human neuropeptide Y5 receptor expressed in HEC-1B cells by flow cytometric assay; assay type: cell-based
T3 sequence (Q15761 whole entry): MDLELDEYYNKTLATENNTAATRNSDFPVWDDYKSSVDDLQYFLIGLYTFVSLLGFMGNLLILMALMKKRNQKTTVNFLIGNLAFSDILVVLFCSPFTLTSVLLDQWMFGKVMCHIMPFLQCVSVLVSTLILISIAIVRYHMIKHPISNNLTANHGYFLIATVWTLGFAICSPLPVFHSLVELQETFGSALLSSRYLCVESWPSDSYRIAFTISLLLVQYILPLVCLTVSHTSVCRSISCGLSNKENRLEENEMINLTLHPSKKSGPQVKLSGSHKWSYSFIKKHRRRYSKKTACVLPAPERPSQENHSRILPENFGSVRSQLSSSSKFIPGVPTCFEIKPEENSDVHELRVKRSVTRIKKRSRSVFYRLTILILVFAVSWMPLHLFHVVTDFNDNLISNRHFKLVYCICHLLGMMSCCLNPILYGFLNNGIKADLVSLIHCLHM

[5] = biological target: Neuropeptide Y receptor type 4 (Homo sapiens, UniProt P50391); assay: Displacement of Cy5-[K4]-hPP from human neuropeptide Y4 receptor expressed in CHO cells coexpressing Galphaqi5 and aequorin by flow cytometric assay; assay type: cell-based
[6] = biological target: T1, Neuropeptide Y receptor type 1; assay: Binding affinity to neuropeptide Y1 receptor in human MCF7 cells; assay type: cell-based
[7] = biological target: T4, Neuropeptide Y receptor type 1 (Homo sapiens) (UniProt P25929)
T4 sequence (whole entry): T1 sequence (P25929 whole entry)

[8] = biological target: T1, Neuropeptide Y receptor type 1; assay: Binding affinity to neuropeptide Y1 receptor in human SK-N-MC cells; assay type: cell-based
[9] = biological target: T1, Neuropeptide Y receptor type 1; assay: Binding affinity to neuropeptide Y1 receptor in human SK-N-MC cells by kinetic experiment; assay type: cell-based
[10] = Chemical stability of compound assessed as half life; assay type: physicochemical
[11] = biological target: T1, Neuropeptide Y receptor type 1; assay: Binding affinity to neuropeptide Y1 receptor in human MCF7 cells by kinetic experiment; assay type: cell-based

Sequence of Neuropeptide Y receptor type 4 (P50391 whole entry): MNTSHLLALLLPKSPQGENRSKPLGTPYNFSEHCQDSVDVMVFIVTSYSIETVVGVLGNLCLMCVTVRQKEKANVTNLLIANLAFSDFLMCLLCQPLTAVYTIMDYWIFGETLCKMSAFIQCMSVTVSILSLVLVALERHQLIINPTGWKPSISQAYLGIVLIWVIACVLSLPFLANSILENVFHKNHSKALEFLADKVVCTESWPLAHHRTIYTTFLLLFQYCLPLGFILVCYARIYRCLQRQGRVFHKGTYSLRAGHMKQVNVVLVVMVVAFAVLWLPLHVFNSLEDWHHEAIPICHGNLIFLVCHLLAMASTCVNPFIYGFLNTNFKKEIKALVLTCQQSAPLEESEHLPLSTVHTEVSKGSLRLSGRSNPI

Ki [1]: 33 nM
SMILES: COC(=O)NC(N)=NCCC[C@@H](NC(=O)C(c1ccccc1)c1ccccc1)C(=O)NCc1ccc(O)cc1

Ki [1]: 12 nM
SMILES: CC(=O)/N=C(/N)NCCC[C@@H](NC(=O)C(c1ccccc1)c1ccccc1)C(=O)NCc1ccc(O)cc1

Ki [2]: 0.1 nM
SMILES: CCNC(=O)/N=C(/N)NCCC[C@@H](NC(=O)C(c1ccccc1)c1ccccc1)C(=O)NCc1ccc(O)cc1

IC50 [2]: 2.24 nM | Kd [2]: 1.2 nM | Ki [2]: 1 nM | Ki [3]: > 10000 nM | Ki [4]: > 2000 nM | Ki [5]: > 10000 nM | Ki [6]: 1.2 nM | pKb [7]: 9.1
SMILES: CCC(=O)/N=C(/N)NCCC[C@@H](NC(=O)C(c1ccccc1)c1ccccc1)C(=O)NCc1ccc(O)cc1

Ki [2]: 0.1 nM
SMILES: CCOC(=O)CNC(=O)/N=C(/N)NCCC[C@@H](NC(=O)C(c1ccccc1)c1ccccc1)C(=O)NCc1ccc(O)cc1

Kd [6]: 2.9 nM | Kd [8]: 1.2 nM | Kd [9]: 1.1 nM | half-life [10]: 2.2 min | Kd [11]: 1.1 nM
SMILES: [3H]CC([3H])C(=O)/N=C(/N)NCCC[C@@H](NC(=O)C(c1ccccc1)c1ccccc1)C(=O)NCc1ccc(O)cc1 (some centres undefined)

Ki [1]: 27 nM
SMILES: CCC/N=C(/N)NCCC[C@@H](NC(=O)C(c1ccccc1)c1ccccc1)C(=O)NCc1ccc(O)cc1

Ki [1]: 4.5 nM
SMILES: CCOC(=O)NC(N)=NCCC[C@@H](NC(=O)C(c1ccccc1)c1ccccc1)C(=O)NCc1ccc(O)cc1
